We go through 1 compound from patent US20040058952A1, “Urease inhibitors” (Otsuka Pharmaceutical Co., Ltd., priority 2000, published 2004).

The structures appear in SMILES notation.

Assay [1] addresses T1, jack bean urease (Canavalia ensiformis, UniProt P07374).
T1 construct: purchased
Description: Urease activity inhibition test (13C-urea, 13C-NMR), jack bean urease. It counts as biochemical. The protocol:
Using ^13C-urea as a substrate, the amount of urea, which is eliminated due to the urease enzyme reaction, was measured with a lapse of time by means of ^13C-NMR. On the basis of an elimination rate (M/sec) of ^13C-urea in the absence of the urease inhibitor sample, the case where the elimination rate in the presence of the sample is reduced to half was calculated as IC50 of the sample. […]
Each sample was inserted into a probe and the enzyme reaction was conducted at the reaction temperature (temperature of the probe) of 20° C. and the measurement was conducted every 20 seconds after 1 to 4 minutes have passed since the beginning of the reaction, while the measurement was conducted every one minute after 4 or more minutes have passed, using a ^13C-NMR apparatus. Consequently, an elimination rate (M/sec) of a signal (165 ppm) of ^13C-urea as the substrate was determined. […]
Using the respective compounds obtained in Reference Examples 2 to 5 as the test compound, the same test (using the jack bean urease) was repeated and IC50 of each test compounds was determined, thus calculating a relative urease inhibitory activity value relative to a standard (1) for the same value of BIT. […]

Assay [2] concerns Helicobacter pylori ATCC 43504. Description: Anti-Helicobacter pylori activity test (dilution method). It counts as cell-based. The following applies: H. pylori ATCC 43504, 3 days culture, OD660nm; compared with metronidazole (MN), FIG. 3. The protocol:
An anti-Helicobacter pylori activity test of the compound as an active ingredient of the present invention was conducted in the following procedure using a dilution method. Helicobacter pylori ATCC 43504 strains were innoculated in a medium in petri dish (Brucella agar (BECTON […]), containing 7% FBS) and then cultured in a mixed carbonic acid gas-nitrogen gas culture medium (10% CO2, 5% O2, 85% N2, 37° C.) for 2 days. The strains were recovered, cultured similarly in a liquid medium using a Brucella broth (BECTON […]) for one day and then diluted with the same medium to control […] to 0.1. The test compound was dissolved in 50% ethanol-saline to prepare a 1 mg/ml solution and the solution was 1- to 2048-fold diluted by 12 steps with the same medium to prepare dilution series. In each well of cell culture plate (20 μl/well), each step wisely diluted solution (20 μl) of the test compound was charged and a Brucella medium (containing 7% FBS) (160 μl) was added, and then a pylori strain solution (20 μl) was finally added.

For assay [3], the target named is Helicobacter pylori urease (Helicobacter pylori, UniProt P69996). In words: Urease activity inhibition test (13C-urea, 13C-NMR), Helicobacter pylori urease. It counts as biochemical. The protocol: Using ^13C-urea as a substrate, the amount of urea, which is eliminated due to the urease enzyme reaction, was measured with a lapse of time by means of ^13C-NMR. On the basis of an elimination rate (M/sec) of ^13C-urea in the absence of the urease inhibitor sample, the case where the elimination rate in the presence of the sample is reduced to half was calculated as IC50 of the sample.
(Preparation of sample) In a NMR tube having a diameter of 5 mm, Helicobacter pylori urease (manufactured by OTSUKA PHARMACEUTICAL CO., 1.6 units) dissolved in 500 μof a mixed solvent (pH 7) of 400 μl of 0.1M phosphate buffer (pH 7) and 100 μl of DMSO was added and each test compound (urease inhibitor sample) dissolved in 100 μl of ethanol was added, followed by standing at 20° C. for 30 minutes and further standing on an ice bath for 10 minutes. […]
Each sample was inserted into a probe and the enzyme reaction was conducted at the reaction temperature (temperature of the probe) of 20° C. and the measurement was conducted every 20 seconds after 1 to 4 minutes have passed since the beginning of the reaction, while the measurement was conducted every one minute after 4 or more minutes have passed, using a ^13C-NMR apparatus. Consequently, an elimination rate (M/sec) of a signal (165 ppm) of ^13C-urea as the substrate was determined.

T1 sequence (P07374 whole entry, looked up): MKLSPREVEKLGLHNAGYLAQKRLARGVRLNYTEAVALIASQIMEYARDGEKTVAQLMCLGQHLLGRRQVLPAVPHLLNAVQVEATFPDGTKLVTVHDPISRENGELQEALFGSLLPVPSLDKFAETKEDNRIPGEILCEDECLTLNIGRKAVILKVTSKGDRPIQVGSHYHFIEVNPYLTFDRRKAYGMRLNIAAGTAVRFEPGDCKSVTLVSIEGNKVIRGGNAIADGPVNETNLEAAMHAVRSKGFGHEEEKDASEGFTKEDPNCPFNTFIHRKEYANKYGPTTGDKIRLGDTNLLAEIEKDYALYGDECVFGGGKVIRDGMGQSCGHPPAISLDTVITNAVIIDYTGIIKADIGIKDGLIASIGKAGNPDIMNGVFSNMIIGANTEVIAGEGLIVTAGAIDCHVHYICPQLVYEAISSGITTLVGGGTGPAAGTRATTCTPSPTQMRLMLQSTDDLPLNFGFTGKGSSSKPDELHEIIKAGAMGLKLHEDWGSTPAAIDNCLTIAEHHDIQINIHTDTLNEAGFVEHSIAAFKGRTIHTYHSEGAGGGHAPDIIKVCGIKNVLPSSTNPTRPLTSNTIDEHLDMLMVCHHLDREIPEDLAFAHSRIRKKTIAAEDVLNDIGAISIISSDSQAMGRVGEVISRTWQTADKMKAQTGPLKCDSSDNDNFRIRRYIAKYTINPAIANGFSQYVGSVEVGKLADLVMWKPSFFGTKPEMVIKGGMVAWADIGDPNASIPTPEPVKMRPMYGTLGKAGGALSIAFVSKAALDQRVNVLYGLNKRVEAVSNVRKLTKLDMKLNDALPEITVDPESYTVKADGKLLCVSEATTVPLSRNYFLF
Chain of Helicobacter pylori urease (P14916 whole entry): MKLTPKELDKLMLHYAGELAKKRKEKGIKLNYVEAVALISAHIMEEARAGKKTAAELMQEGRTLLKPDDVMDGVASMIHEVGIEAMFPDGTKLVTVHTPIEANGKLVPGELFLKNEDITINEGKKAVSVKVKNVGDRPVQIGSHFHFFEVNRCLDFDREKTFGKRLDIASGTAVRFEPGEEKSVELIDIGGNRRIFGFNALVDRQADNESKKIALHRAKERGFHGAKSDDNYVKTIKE
Chain of Helicobacter pylori urease (P69996 whole entry): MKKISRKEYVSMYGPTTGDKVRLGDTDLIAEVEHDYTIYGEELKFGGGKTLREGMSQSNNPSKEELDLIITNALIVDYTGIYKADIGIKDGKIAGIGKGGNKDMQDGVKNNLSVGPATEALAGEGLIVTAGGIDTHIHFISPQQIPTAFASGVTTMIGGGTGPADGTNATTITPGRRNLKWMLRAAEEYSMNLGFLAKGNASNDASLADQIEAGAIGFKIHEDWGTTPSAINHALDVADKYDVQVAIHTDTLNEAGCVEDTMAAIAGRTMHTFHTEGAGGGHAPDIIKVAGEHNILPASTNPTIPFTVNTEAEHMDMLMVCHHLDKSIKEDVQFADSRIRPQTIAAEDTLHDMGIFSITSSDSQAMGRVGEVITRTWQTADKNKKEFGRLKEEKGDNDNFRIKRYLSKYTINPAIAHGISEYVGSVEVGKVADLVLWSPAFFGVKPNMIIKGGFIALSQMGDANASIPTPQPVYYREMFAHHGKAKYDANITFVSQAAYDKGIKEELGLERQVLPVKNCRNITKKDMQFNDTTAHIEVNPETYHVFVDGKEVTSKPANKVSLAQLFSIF

What is called IC50 is the concentration needed to halve the response being measured. A lower IC50 goes with inhibition by little substance. In the case of `O=c1[nH]sc2ccccc12` [BIT, 1,2-benzoisothiazol-3 (2H)-one], the IC50 in assay [1] is 132 µM; in assay [3] it was 55 µM. Also, the “anti-Helicobacter pylori activity (eradication rate)” value in assay [2] is listed as “stronger than that of MN”.
